# Reference: ChEMBL document CHEMBL4823256 (J Med Chem, 2021)
# Tests used:
# [1] = test system: Human orthopneumovirus; test: microbe, parasite or virus in culture; settings: human respiratory syncytial virus, A2, HEp-2, 96 h
# [2] = in vitro; settings: human, Huh-7 cells
# [3] = in vitro; settings: human, MT4 cells
# [4] = test system: Hepatitis C virus; test: microbe, parasite or virus in culture; settings: subtype 1b, Huh-7, 72 h
# [5] = in vitro; settings: human, HEp-2 cells
# [6] = in vitro; settings: human, HEp-2 cells; remark: listed apart in the source
# [7] = test system: Respiratory syncytial virus; test: microbe, parasite or virus in culture; settings: human respiratory syncytial virus, Primary bronchial epithelial cell, 72 h
# [8] = in vitro; settings: human, Caco-2
# [9] = in vitro; settings: human, Caco-2; remark: listed apart in the source
# [10] = in vivo; settings: Sprague-Dawley, rat, po, 8 mg/kg
# [11] = in vivo; settings: cynomolgus monkey, po, 20 mg/kg
# [12] = clinical; settings: human, in vivo, iv, 75 mg
# [13] = test system: Respiratory syncytial virus; settings: primary bronchial epithelial cell
# [14] = in vivo; settings: chlorocebus sabaeus, iv, 10 mg/kg
# [15] = in vivo; settings: cynomolgus monkey, iv, 10 mg/kg
# [16] = in vivo; settings: chlorocebus sabaeus, iv, 10 mg/kg; remark: listed apart in the source
# [17] = clinical; settings: human, in vivo, iv, 75 mg; remark: listed apart in the source
# [18] = test system: Human orthopneumovirus; settings: hep-2
# [19] = in vivo; settings: cynomolgus monkey, iv, 10 mg/kg; remark: listed apart in the source
# [20] = in vivo; settings: cynomolgus monkey, iv, 10 mg/kg; remark: listed apart in the source
# [21] = in vivo; settings: chlorocebus sabaeus, iv, 10 mg/kg; remark: listed apart in the source
# [22] = in vivo; settings: cynomolgus monkey, iv, 10 mg/kg; remark: listed apart in the source
# [23] = in vivo; settings: chlorocebus sabaeus, iv, 10 mg/kg; remark: listed apart in the source
# [24] = cells; settings: Homo sapiens, Primary bronchial epithelial cell, 48 h
# [25] = in vivo; settings: cynomolgus monkey, iv, 10 mg/kg; remark: listed apart in the source
# [26] = in vivo; settings: chlorocebus sabaeus, iv, 10 mg/kg; remark: listed apart in the source
# [27] = cells; settings: Homo sapiens, HEp-2, 48 h
# [28] = in vivo; settings: dog, po
# [29] = in vivo; settings: cynomolgus monkey, iv, 20 mg/kg
# [30] = in vivo; settings: cynomolgus monkey, iv, 20 mg/kg; remark: listed apart in the source
SMILES,EC50 [1] [nM],CC50 [5] [nM],EC50 [7] [nM],selectivity ratio ([6]; Ratio CC50/EC50),also measured
C[C@@]1(c2ccc3c(N)ncnn23)O[C@H](CO)[C@@H](O)[C@H]1O,5500,–,–,–,CC50 at 72 h [2]: > 45000 nM; CC50 at 120 h [3]: 4500 nM
C#C[C@@]1(c2ccc3c(N)ncnn23)O[C@H](CO)[C@@H](O)[C@H]1O,34000,> 100000,–,–,CC50 at 72 h [2]: > 89000 nM; EC50 [4]: > 89000 nM; CC50 at 120 h [3]: > 50000 nM
CC(C)(C)C(=O)SCCOP(=O)(OCCSC(=O)C(C)(C)C)OC[C@H]1O[C@@](C#N)(c2ccc3c(N)ncnn23)[C@H](O)[C@@H]1O,150,8700,–,–,selectivity ratio [6]: 58
C[C@@]1(O)[C@H](O)[C@@H](CO)O[C@@]1(C#N)c1ccc2c(N)ncnn12,> 100000,> 100000,–,–,CC50 at 72 h [2]: > 89000 nM; EC50 [4]: > 89000 nM; CC50 at 120 h [3]: > 200000 nM
CCC(CC)COC(=O)[C@H](C)N[P@@](=O)(OC[C@H]1O[C@@](C#N)(c2ccc3c(N)ncnn23)[C@H](O)[C@@H]1O)Oc1ccccc1,28,26000,65,–,–
CC(C)OC(=O)[C@H](C)NP(=O)(OC[C@H]1O[C@@](C#N)(c2ccc3c(N)ncnn23)[C@H](O)[C@@H]1O)Oc1ccccc1 (some centres not stated),360,> 100000,2500,> 277,–
C[C@H](NP(=O)(OC[C@H]1O[C@@](C#N)(c2ccc3c(N)ncnn23)[C@H](O)[C@@H]1O)Oc1ccccc1)C(=O)OC1CCC1 (some centres not stated),75,34000,420,453,–
CCOC(=O)[C@H](C)NP(=O)(N[C@@H](C)C(=O)OCC)OC[C@H]1O[C@@](C#N)(c2ccc3c(N)ncnn23)[C@H](O)[C@@H]1O,6480,> 100000,–,> 15,–
C[C@H](NP(=O)(OC[C@H]1O[C@@](C#N)(c2ccc3c(N)ncnn23)[C@H](O)[C@@H]1O)Oc1ccccc1)C(=O)OC1CCCC1 (some centres not stated),170,> 80000,350,471,–
Nc1ncnn2c([C@@H]3O[C@H](CO)[C@@H](O)[C@H]3O)ccc12,> 50000,36,–,–,EC50 [4]: 3.5 nM; CC50 at 120 h [3]: < 10 nM
C[C@H](NP(=O)(OC[C@H]1O[C@@](C#N)(c2ccc3c(N)ncnn23)[C@H](O)[C@@H]1O)Oc1ccccc1)C(=O)OCC(C)(C)C (some centres not stated),50,11000,530,220,–
C#C[C@@]1(c2ccc3c(N)ncnn23)O[C@H](COP(=O)(N[C@@H](C)C(=O)OCC(CC)CC)Oc2ccccc2)[C@@H](O)[C@H]1O (some centres not stated),750,> 100000,–,> 133,–
C[C@H](NP(=O)(OC[C@H]1O[C@@](C#N)(c2ccc3c(N)ncnn23)[C@H](O)[C@@H]1O)Oc1ccccc1)C(=O)OC(C)(C)C (some centres not stated),4500,> 100000,> 5000,> 22,–
CCOC(=O)[C@H](C)NP(=O)(OC[C@H]1O[C@@](C#N)(c2ccc3c(N)ncnn23)[C@H](O)[C@@H]1O)Oc1ccccc1 (some centres not stated),300,> 73000,850,> 243,–
CCC(CC)OC(=O)[C@H](C)NP(=O)(OC[C@H]1O[C@@](C#N)(c2ccc3c(N)ncnn23)[C@H](O)[C@@H]1O)Oc1ccccc1 (some centres not stated),310,> 100000,> 5000,323,–
CCC(=O)OC[C@H]1O[C@@](C#N)(c2ccc3c(N)ncnn23)[C@H](OC(=O)CC)[C@@H]1OC(=O)CC,430,> 100000,–,–,Papp B→A [8]: 0.26 ×10⁻⁶ cm/s; Papp A→B [9]: < 0.1 ×10⁻⁶ cm/s
C[C@H](NP(=O)(OC[C@H]1O[C@@](C#N)(c2ccc3c(N)ncnn23)[C@H](O)[C@@H]1O)Oc1ccccc1)C(=O)OC1CCCCCCC1 (some centres not stated),28,48000,–,–,selectivity ratio [6]: 1710
CC(C)[C@H](N)C(=O)OC[C@H]1O[C@@](C#N)(c2ccc3c(N)ncnn23)[C@H](O)[C@@H]1O,1110,> 100000,–,–,Papp B→A [8]: 0.45 ×10⁻⁶ cm/s; Papp A→B [9]: 0.55 ×10⁻⁶ cm/s
C[C@H](NP(=O)(OC[C@H]1O[C@@](C#N)(c2ccc3c(N)ncnn23)[C@H](O)[C@@H]1O)Oc1ccccc1)C(=O)OCC1CC1 (some centres not stated),44,50000,620,–,selectivity ratio [6]: 1140
C[C@H](NP(=O)(OC[C@H]1O[C@@](C#N)(c2ccc3c(N)ncnn23)[C@H](O)[C@@H]1O)Oc1ccccc1)C(=O)OCC1CCC1 (some centres not stated),24,23000,130,–,selectivity ratio [6]: 958
CCC(CC)COC(=O)[C@H](C)NP(=O)(N[C@@H](C)C(=O)OCC(CC)CC)OC[C@H]1O[C@@](C#N)(c2ccc3c(N)ncnn23)[C@H](O)[C@@H]1O,310,36000,170,–,selectivity ratio [6]: 116
CC(=O)OC[C@H]1O[C@@](C#N)(c2ccc3c(N)ncnn23)[C@H](OC(C)=O)[C@@H]1OC(C)=O,820,> 100000,–,–,Papp B→A [8]: 1.9 ×10⁻⁶ cm/s; Papp A→B [9]: 0.9 ×10⁻⁶ cm/s
CC(C)C(=O)OC[C@H]1O[C@@](C#N)(c2ccc3c(N)ncnn23)[C@H](OC(=O)C(C)C)[C@@H]1OC(=O)C(C)C,260,81000,–,–,Papp B→A [8]: 1.5 ×10⁻⁶ cm/s; bioavailability [10]: 57%; bioavailability [11]: 28%
CCC(CC)COC(=O)[C@H](C)N[P@](=O)(OC[C@H]1O[C@@](C#N)(c2ccc3c(N)ncnn23)[C@H](O)[C@@H]1O)Oc1ccccc1 (stereo in doubt),–,–,–,–,Cmax at 1 h [12]: < 1 µM; EC50 [13]: 49 nM; clearance at 0.5 h [14]: 35.5 mL/min/kg; Cmax at 0.5 h [15]: 22.7 µM; Vd at 0.5 h [16]: 0.94 L/kg; Cmax at 0.5 h [17]: 5 µM; EC50 [18]: 15 nM; half-life at 0.5 h [19]: 24 min; Vd at 0.5 h [20]: 0.45 L/kg; half-life at 0.5 h [21]: 48 min; AUC(0-inf) at 0.5 h [22]: 8.8 µM·h; AUC(0-inf) at 0.5 h [23]: 7.9 µM·h; IC50 [24]: 140 nM; clearance at 0.5 h [25]: 32 mL/min/kg; Cmax at 0.5 h [26]: 12.6 µM; IC50 [27]: 110 nM; bioavailability [11]: < 1%
CCC(CC)COC(=O)[C@H](C)N[P@](=O)(OC[C@H]1O[C@@](C#N)(c2ccc3c(N)ncnn23)[C@H](O)[C@@H]1O)Oc1ccccc1 (stereo in doubt; 18j),27,–,69,–,–
N#C[C@@]1(c2ccc3c(N)ncnn23)O[C@H](CO)[C@@H](O)[C@H]1O [GS-441524],530,> 100000,1850,–,bioavailability [28]: 89%; AUC(0-inf) at 0.5 h [29]: 123 µM·h; Papp B→A [8]: 2.1 ×10⁻⁶ cm/s; CC50 at 72 h [2]: > 89000 nM; Cmax at 0.5 h [30]: 79.2 µM; bioavailability [10]: 12%; IC50 [24]: 220 nM; CC50 at 120 h [3]: > 50000 nM; IC50 [27]: 350 nM; bioavailability [11]: 3.4%; Papp A→B [9]: 0.17 ×10⁻⁶ cm/s
